≈ marks a conversion by molar mass, not a printed value.
Legend:
Assay in all cases: microbe, parasite or virus in culture
Format in all cases: cell-based
[1] = test system: SARS-CoV-2 Beta variant; conditions: Severe acute respiratory syndrome coronavirus 2, Vero C1008
[2] = test system: SARS-CoV-2 Delta variant; conditions: Severe acute respiratory syndrome coronavirus 2, Vero C1008
[3] = test system: SARS-CoV-2 Wuhan isolate (wild type); conditions: Severe acute respiratory syndrome coronavirus 2, Vero C1008; positive control at 3.77 μg/ml; […]
[4] = positive control at 3.77 μg/ml, […]

Row | Compound | IC50 ([1]; Beta strain, in vitro) | inhibition at 0.5 µg/mL ([1]; Beta, 0.5 μg/ml, Vero E6 cells) | inhibition at 2 µg/mL ([1]; Beta, 2 μg/ml, Vero E6 cells) | inhibition at 5 µg/mL ([1]; Beta, 5 μg/ml, Vero E6 cells) | inhibition at 16 µg/mL ([1]; Beta, 16 μg/ml, Vero E6 cells) | inhibition at 50 µg/mL ([1]; Beta, 50 μg/ml, Vero E6 cells) | IC50 ([2]; Delta strain, in vitro) | inhibition at 0.5 µg/mL ([2]; Delta, 0.5 μg/ml, Vero E6 cells) | inhibition at 2 µg/mL ([2]; Delta, 2 μg/ml, Vero E6 cells) | inhibition at 5 µg/mL ([2]; Delta, 5 μg/ml, Vero E6 cells) | inhibition at 16 µg/mL ([2]; Delta, 16 μg/ml, Vero E6 cells) | inhibition at 50 µg/mL ([2]; Delta, 50 μg/ml, Vero E6 cells) | inhibition at 3.77 µg/mL [1, 4] | inhibition at 3.77 µg/mL [2, 4] | inhibition at 3.77 µg/mL [3]
1 | CC1=C2C[C@@H]3[C@@H](C)C=CC(=O)[C@@]3(C)C[C@@]2(O)OC1=O [HLS, (4aR,5S,8aS,9aR)-9a-hydroxy-3,5,8a-trimethyl-4a,5,9,9a-tetrahydronaphtho[2,3-b]furan-2,8(4H,8aH)-dione] | 8.93 µg/mL (≈ 34 µM) | 25% | 25% | 50% | 75% | 100% | 6.15 µg/mL (≈ 23.4 µM) | 0% | 25% | 50% | 75% | 100% |  |  | 
2 | CCC(CC)COC(=O)[C@H](C)N[P@](=O)(OC[C@H]1O[C@@](C#N)(c2ccc3c(N)ncnn23)[C@H](O)[C@@H]1O)Oc1ccccc1 [Remdesivir, reference compound] |  |  |  |  |  |  |  |  |  |  |  |  | 100% | 100% | 100%
